# Reference: paper PMC8418751, “3D-printing magnesium–polycaprolactone loaded with melatonin inhibits the development of osteosarcoma by regulating cell-in-cell structures” (Journal of Nanobiotechnology, 2021)
# What was measured:
# [1] = In vivo safety of melatonin in mice (body weight, HE of main organs); settings: tail vein, once every 2 days at 3 mg each time, 30 days
# Experimental: Tissues were fixed in 4% paraformaldehyde. After fixation, the samples were decalcified in 10% EDTA for 21 days before paraffin embedding and then sliced microtomically into a systematic series of 16 μm sections. Standard HE staining was performed and photographed. The average number of deposits per section was calculated using Image-Pro Plus 6.0 (Media Cybernetics, USA).
# The safety of melatonin in mice was further studied by injecting melatonin into the tail vein of mice once every 2 days at 3 mg each time. After 30 days, the heart, liver, spleen, lung, kidney and other important organs were collected, sectioned and stained with HE for microscopy observation. […] Along with the increasing of the mass ratio of melatonin and SunP Gel G1, the LE and LC were increased. The LE reached peak at mass ratio of 1:2 and was decreased at mass ratio of 2:1. The mass ratio of 1:2 was selected for further experiments.
# [2] = In vitro release of melatonin (dialysis bag, PBS pH 7.4); format: physicochemical; settings: at 10 h; PBS pH 7.4, 37 °C
# Experimental: Standard curve of melatonin was first draw using PBS (pH = 7.4) as solvent under the wavelength of the maximum absorption peak (278 nm). […] The dialysis bag was then placed in a beaker containing the same pH PBS buffer and was vibrated horizontally in a constant temperature shaker (37 °C ± 0.5 °C) with a vibration frequency of 50 times/min. The release liquid (5 ml) was replaced with same amounts of fresh PBS at selected time intervals. The absorbance value of the solution was measured at 278 nm and the drug release rate was calculated as follow: R(%)=ρnV+Vi∑tn-iρi/MD×100 where R means the cumulative drug release rate (%); n means the number of sampling. ρn represents the mass concentration (g/l) of the drug in the nth release. V represents the total volume of the release liquid. ρi represents the mass concentration (g/l) of the drug in the ith release, Vi represents the volume of the release liquid at the ith sampling and MD means the mass of drug loaded (g).
# human OS (U2OS) cells = assay: U2OS xenograft in nude mice: OS growth and metastasis; format: in vivo, Balb/c nude mice; settings: nude mice with implanted U2OS cells, 27 days
# Experimental: Female Balb/c nude mice (n = 6, 8 weeks old) were purchased from the Experimental Animal Center of Jilin University. The mice were bred under temperature-controlled conditions at 22.6 ± 2 °C with a 12-h day/light cycle. All applicable institutional and national guidelines for the care and use of animals were followed and the animal experiments were approved by the Animal Care and Use Committee of China Medical University. The heterograft mouse model was established by subcutaneous injection of 2 × 10^8 human OS (U2OS) cells suspended in 0.2 ml medium into the root of the right thigh. […]
# The mice were sacrificed. […] Histological alterations were evaluated using a fluorescence microscope (Nikon Eclipse Ti, Optical Apparatus Co., Ardmore, USA) and a confocal microscope (Carl Zeiss, LSM 780).
# Tissues were fixed in 4% paraformaldehyde. […] The average number of deposits per section was calculated using Image-Pro Plus 6.0 (Media Cybernetics, USA). […]
# U2OS cells [3] = assay: CIC formation in U2OS cells (immunofluorescence, electron microscope); format: cell-based, human; settings: immunofluorescence and electron microscope
# Experimental: The cells were scrapped after treatment, collected by centrifugation, washed with PBS and fixed with 5% glutaraldehyde. After the cells were dehydrated, embedded, sectioned, stained, the mitophagosomes were observed by TEM. The quantity of CIC structures was calculated in 10 fields a view. After treatment, the cells were fixed with 4% paraformaldehyde at room temperature (23–25 °C) for 15 min. After PBS washing, cells were permeabilized with 0.2% Triton X-100 for 5 min. Sections were incubated in a blocking buffer containing 5% BSA for 30 min at room temperature (23–25 °C), followed by incubation with primary antibodies overnight at 4 °C. Secondary antibodies labeled with fluorescein (1:500, Abcam) were applied for 120 min. After incubating with 0.1% DAPI for 10 min and another wash with PBS, images were captured on a wide field fluorescent microscope (Olympus, Japan). Each experiment was repeated three times (total, n = 90 cells) and the fluorescence intensities were quantified with the ImageJ software. […] The cells were then washed with ice-cold PBS, and analyzed under a confocal laser scanning microscope (Olympus, Tokyo, Japan). […] Image-Pro Plus 6.0 (Media Cybernetics) was used for quantifying mitochondria.
# [4] = tested on: PKA-Rho/ROCK signaling pathway; assay: Western blot of PKA, p-PKA, Rho, ROCK in U2OS cells; format: cell-based, human
# Experimental: Cells or tissues were washed with ice-cold PBS and resuspended in lysis buffer (50 mM Tris–HCl, 150mM NaCl, 1% NP-40, 0.5% sodium deoxycholate, 0.1% sodium dodecyl sulfate) containing protease and phosphorylase inhibitor cocktails. After centrifugation at 12,000g for 30 min at 4 °C, the supernatant containing total protein was collected and quantified using the BCA protein concentration assay kit (Boster, Hubei, China). The samples were separated by SDS-PAGE and then transferred to polyvinylidene difluoride (PVDF) membranes (Millipore, Massachusetts, USA) (210 mA, between 30 and 120 min according to the molecular mass of the protein). After blocking for 2 h with 5% non-fat milk, the PVDF membranes were incubated with the appropriate primary antibodies (1:500 or 1:1000 dilution) at 4 °C overnight. The blots were then incubated with anti-mouse or anti-rabbit IgG conjugated to horseradish peroxidase (1:5000 dilution) for 1 h at room temperature (23–25 °C). Immunoreactive bands were visualized by the EC3 imaging system (UVP Inc., California, USA), and quantified with the ImageJ software (NIH, USA). The ratios between the proteins of interest and loading controls of the same sample were calculated as relative content and expressed graphically. The results were averaged from three independent experiments.
# U2OS cells [5] = assay: Mitochondrial physiology of U2OS cells (fluorescence, Western blot, mtDNA, ATP, O2 consumption); format: cell-based, human; settings: 24 h
# Experimental: (§1) U2OS cells were divided into 8 groups: (1) Control group: without any treatment; (2) MT group: U2OS cells were added with 1 mM melatonin; (3) MT + ROCK activator group: U2OS cells were added with 1mM melatonin and 50 µM ROCK activator (pentanoic acid); (4) MT + ROCK inhibitor group: U2OS cells were added with 1mM melatonin and 50 µM ROCK inhibitor (ROCK inhibitor-2); (5) Mg–PCL group: U2OS cells were co-cultured with Mg–PCL scaffold; (6) Mg–PCL + MT group: U2OS cells were co-cultured with Mg–PCL scaffold loaded with melatonin; (7) Mg–PCL + MT + ROCK activator group: U2OS cells were co-cultured with Mg–PCL scaffold loaded with melatonin and added with 50 µM ROCK activator (pentanoic acid); and (8) Mg–PCL + MT + ROCK activator group: U2OS cells were co-cultured with Mg–PCL scaffold loaded with melatonin and added with 50 µM ROCK inhibitor (ROCK inhibitor-2).
# Cells or tissues were washed with ice-cold PBS and resuspended in lysis buffer (50 mM Tris–HCl, 150mM NaCl, 1% NP-40, 0.5% sodium deoxycholate, 0.1% sodium dodecyl sulfate) containing protease and phosphorylase inhibitor cocktails. After centrifugation at 12,000g for 30 min at 4 °C, the supernatant containing total protein was collected and quantified using the BCA protein concentration assay kit (Boster, Hubei, China). […] Immunoreactive bands were visualized by the EC3 imaging system (UVP Inc., California, USA), and quantified with the ImageJ software (NIH, USA). The ratios between the proteins of interest and loading controls of the same sample were calculated as relative content and expressed graphically. […]
# After treatment, the cells were fixed with 4% paraformaldehyde at room temperature (23–25 °C) for 15 min. […] Each experiment was repeated three times (total, n = 90 cells) and the fluorescence intensities were quantified with the ImageJ software. […] The cells were then washed with ice-cold PBS, and analyzed under a confocal laser scanning microscope (Olympus, Tokyo, Japan). […] Image-Pro Plus 6.0 (Media Cybernetics) was used for quantifying mitochondria. […]
# U2OS cells [6] = assay: Wound-healing assay; format: cell-based, human
# Experimental: as §1
# The U2OS cells were plated at 8.5 × 10^5/well on 6-well plates for 48 h and were wounded by scratching with a pipette tip. They were subsequently incubated with DMEM containing 0.5% FBS. After repeated treatment at 0, 12, 24 and 48 h, the cells were photographed using a phase contrast microscope (Olympus, Japan).
# U2OS cells [7] = assay: Transwell (Boyden chamber) cell invasion and migration assays; format: cell-based, human; settings: 24 h
# Experimental: as §1
# To examine the effects of melatonin and CIC formation on the invasiveness of U2OS cells in vitro, we employed a modified Boyden chamber invasion assay with Matrigel coating. After treatment, the cells were seeded into the upper section of the Boyden chamber (Neuro Probe, Cabin John, MD, USA) at densities of 2.0 × 10^5/ml, and then incubated for 24 h at 37 °C. Finally, the cells were counted under a light microscope. Cell migration was measured by a cell invasion assay without Matrigel coating.
structure (smiles),measurement,setting,value
"COc1ccc2[nH]cc(CCNC(C)=O)c2c1 [melatonin, Melatonin]","organ damage (HE staining of heart, liver, spleen, lung, kidney)",[1],no organ damage was observed
same,weight of mice,[1],stable without notable changes
same,cumulative release rate,[2],96.3%
same,cell apoptosis of xenograft tumors (TUNEL),human OS (U2OS) cells,promoted
same,tumor weight of xenograft tumors,human OS (U2OS) cells,effectively inhibited
same,cell proliferation of xenograft tumors (Ki-67),"human OS (U2OS) cells; melatonin 40 mg kg−1 day−1 i.p. or loaded scaffold, ROCK activator/inhibitor 10 mg kg−1 day−1 i.p.",effectively inhibited
same,number of CIC structure,U2OS cells [3],significantly reduced
same,PKA phosphorylation (Western blot),[4],promote PKA phosphorylation
same,Rho and ROCK expressions (Western blot),[4],reduced
same,relative fluorescence of mitochondria,"U2OS cells [5]; 1 mM melatonin, 50 µM ROCK activator/inhibitor",reduced
same,"expression of mitochondrial biogenesis-related proteins PGC1α, NRF1 and TFAM",U2OS cells [5]; Western blot,downregulated
same,"expression of mitochondrial biomarkers TOM20, COX-4l1 and ATP Synβ",U2OS cells [5]; Western blot,reduced
same,cell migrated area relative to control (wound healing),U2OS cells [6]; U2OS cells,significantly decreased
same,scratch width (wound healing),"U2OS cells [6]; U2OS cells, 0, 12, 24 and 48 h",wider
same,number of invaded and migrated cells (Transwell),U2OS cells [7],significantly lower
